Assay results reported in patent publication US20140256790A1, “Methods for Identifying and Compounds Useful for Increasing the Functional Activity and Cell Surface Expression of CF-Associated Mutant Cystic Fibrosis Transmembrance Conductance Regulator” (priority 2008, published 2014).

Columns and labels:
ΔF508 CFTR [1] = assay: Trans-epithelial chloride flux (short-circuit current, Ussing chamber) in CFTR ΔF508 homozygous primary bronchial epithelial cells; settings: primary CF bronchial epithelial cell culture on filter support; Ad-siRNA knockdown; forskolin 10 μM, genistein 50 μM
Description: A further validation of the correction of ΔF508 CFTR is the correction of trans-epithelial chloride transport in primary bronchial epithelial cell cultures from a CF patient, grown in a filter support. […] A standard drug addition protocol (Devor et al., 2000) can be used to detect transepithelial currents due to CFTR. Short-circuit current (Isc) across HBE primary cultures can be measured as described (Myerburg et al., 2006; Myerburg et al., 2008). Cells cultured on filter supports are mounted in modified Ussing chambers, and the cultures are continuously short-circuited with an automatic voltage clamp (Physiological Instruments, San Diego, Calif.). The basolateral bathing solution composition is: 120 mM NaCl, 25 mM NaHCO3, 3.3 mM KH2PO4, 0.8 mM K2HPO4, 1.2 mN MgCl2, 1.2 mM CaCl2, and 10 mM glucose. A basal-to-apical Cl gradient can be imposed by reducing the NaCl concentration of the apical bathing solution by replacing NaCl with equimolar Na-gluconate. The chambers are maintained at 37° C. and gassed continuously with a mixture of 95% O2-5% CO2 which fixed the pH at 7.4. Following a 5 min equilibration period, the baseline Isc is recorded. Sodium currents are blocked by addition of the epithelial sodium channel (ENaC) blocker, amiloride (10 μM), to the apical bath. […]

ΔF508-CFTR = assay type: cell-based, human; settings: rescreen with repropagated Ad-siRNA; ΔF508-CFTR and YFP adenovirus; 10 microM forskolin and 100 microM genistein; threshold −2
Description: Accordingly, an assay to monitor CFTR-halide flux by using a reporter protein, halide-sensitive fluorescent protein YFP, is developed to measure the functional activity of CFTR. Cells expressing this reporter protein show enhanced fluorescence quenching of YFP by extracellular isomolar iodide solutions in the presence of activated CFTR. This is caused by the increased flux of iodide across the plasma membrane by CFTR. The fluorescence quenching is measured on a fluorescence plate reader.
Human lung epithelial cells are isolated from a ΔF508-CFTR patient, obtained after informed consent. These cells are stably transfected with ΔF508-CFTR expression plasmids and are named CFBE41o-cells (Gruenert et al., 2004). […]
CFBE41o-cells are transduced with the YFP fluorescent halide reporter adenoviral vector at a VPU of 2000 viral particles per cell, together with adenoviral vectors expressing ΔF508-CFTR, or as a positive control the wild-type CFTR. […] Plates are read in a fluorescent plate reader, equipped with injectors for the delivery of reagents to the well (Perkin-Elmer Envision 2102). Each well is read for 2 seconds at 485/530 nm (excitation/emission) prior to the addition of 110 microliter iodide-containing buffer (137 mM NaI, 2.7 mM KCl, 10 mM Na2HPO4, 1.76 mM KH2PO4 at pH 7.4). Fluorescent reading is continued for an additional 12 sec, sampling every 200 msec. […]

ΔF508 CFTR [2] = assay: Cell-surface expression of ΔF508 CFTR by cell-surface biotinylation and Western blot in CFBE41o-cells; assay type: cell-based, human
Description: This analysis allows a more quantitative measurement of the levels of restoration of cell-surface expressed ΔF508 CFTR, as well as the glycosylation status of the ΔF508 CFTR protein (Cheng et al., 1990). A preferred effect of a HIT would be increased cell-surface expression of ΔF508 CFTR, and especially “band C” (Cheng et al., 1990), fully glycosylated ΔF508 CFTR. The assay to measure cell surface expression of ΔF508-CFTR is performed in the following fashion: CFBE41o-cells are seeded in 60 mm cell culture dishes coated with 0.1 mg/mL bovine serum albumin (BSA), 0.03 mg/mL bovine collagen type 1 and 0.01 mg/mL human fibronectin. CFBE41o-cells are cultured in MEM containing 10% Fetal Bovine Serum, 2 mM glutamine, 100 IU/mL penicillin, 0.1 mg/mL streptomycine sulfate and 0.5 mg/mL hygromycin B at 37° C., 5% CO2 in a humidified chamber. One day after seeding, an aliquot of the Ad-siRNA is applied to each well. […] The supernatant is analyzed on Western blots (BioRad Criterion XT gels, 3-8% polyacrylamide #3450131). […] Quantification of the cell surface expression of ΔF508 CFTR was performed with Biorad Quantity One software.
Positive and negative controls for the biotinylation include incubation of cell culture at 27° C. for 48 hrs to correct misfolding and trafficking of ΔF508 CFTR, and omission of Ad-siRNAs respectively. No signal is detected when the biotinylation reagent was omitted. […]
Target sequence in this assay (P13569 other isoform, or with tags, fused parts or gaps DEL508-508): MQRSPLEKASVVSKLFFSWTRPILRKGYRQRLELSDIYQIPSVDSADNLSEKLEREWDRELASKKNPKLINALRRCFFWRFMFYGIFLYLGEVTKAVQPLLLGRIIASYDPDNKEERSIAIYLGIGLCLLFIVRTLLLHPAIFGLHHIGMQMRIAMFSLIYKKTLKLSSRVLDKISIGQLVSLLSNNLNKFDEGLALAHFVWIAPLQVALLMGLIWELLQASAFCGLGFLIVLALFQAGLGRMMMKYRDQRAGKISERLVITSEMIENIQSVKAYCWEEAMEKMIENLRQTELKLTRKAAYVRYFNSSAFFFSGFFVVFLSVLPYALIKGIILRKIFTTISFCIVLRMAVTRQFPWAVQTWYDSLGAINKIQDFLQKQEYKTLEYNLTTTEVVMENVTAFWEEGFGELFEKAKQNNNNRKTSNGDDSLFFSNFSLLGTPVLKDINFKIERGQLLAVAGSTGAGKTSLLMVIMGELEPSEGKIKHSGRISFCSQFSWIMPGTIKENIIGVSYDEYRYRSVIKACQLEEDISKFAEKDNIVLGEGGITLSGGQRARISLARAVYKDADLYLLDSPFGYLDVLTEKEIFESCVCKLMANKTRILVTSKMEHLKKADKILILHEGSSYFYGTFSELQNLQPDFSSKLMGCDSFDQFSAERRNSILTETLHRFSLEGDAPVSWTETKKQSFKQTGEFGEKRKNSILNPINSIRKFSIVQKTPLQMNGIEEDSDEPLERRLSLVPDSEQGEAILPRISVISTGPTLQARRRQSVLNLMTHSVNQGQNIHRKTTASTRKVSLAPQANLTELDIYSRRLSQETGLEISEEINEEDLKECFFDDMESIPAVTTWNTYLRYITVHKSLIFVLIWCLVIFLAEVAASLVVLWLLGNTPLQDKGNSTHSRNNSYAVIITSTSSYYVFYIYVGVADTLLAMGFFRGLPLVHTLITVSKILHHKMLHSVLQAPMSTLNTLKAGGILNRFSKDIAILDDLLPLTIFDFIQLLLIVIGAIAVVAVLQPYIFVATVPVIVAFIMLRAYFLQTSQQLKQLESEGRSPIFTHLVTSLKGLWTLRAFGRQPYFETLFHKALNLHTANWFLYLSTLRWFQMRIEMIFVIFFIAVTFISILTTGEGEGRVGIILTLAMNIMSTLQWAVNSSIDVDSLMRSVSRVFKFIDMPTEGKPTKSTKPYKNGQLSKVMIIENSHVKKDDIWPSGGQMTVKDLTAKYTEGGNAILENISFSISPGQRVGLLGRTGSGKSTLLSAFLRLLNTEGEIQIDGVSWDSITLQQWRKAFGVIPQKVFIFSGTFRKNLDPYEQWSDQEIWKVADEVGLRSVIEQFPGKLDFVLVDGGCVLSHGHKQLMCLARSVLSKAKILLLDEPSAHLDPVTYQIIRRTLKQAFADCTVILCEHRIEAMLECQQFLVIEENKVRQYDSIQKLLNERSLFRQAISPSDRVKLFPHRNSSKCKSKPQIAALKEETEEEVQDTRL

ΔF508-CFTR, sequence (P13569 other isoform, or with tags, fused parts or gaps DEL508-508): as above

## UGT3A2: Ad-siRNA (adenovirus-expressed shRNA) knocking down UGT3A2; KD sequences SEQ ID NO: 56, 57; SEQ 57 used in Table 6 (guide AACATGGTCCGAGTAGAAG; listed as Homo sapiens)
ΔF508 CFTR [1]
  Forskolin-Genistein induced chloride flux in CF primary epithelial cells compared to control cells (non-CF): 22.9%
ΔF508-CFTR
  Forskolin-Genistein induced halide flux in CFBE41o-: −5.485 fold stdev from the mean of the negative controls
ΔF508 CFTR [2]; CFBE41o- cell culture upon TARGET Ad-siRNA, relative to E-cadherin signal, without Ad-siRNAs set at 0, 27° C. for 48 hrs set at 1
  CFTRΔF508 cell surface expression: 0.906
ΔF508 CFTR [2]; cell-surface ΔF508 CFTR, band C fully glycosylated / band B core glycosylated, CFBE41o-
  C-band/B-band ratio: 0.278
